Assay results: patent publication EP2876156A1 (COMMISSARIAT A L'ENERGIE ATOMIQUE ET AUX ENERGIES …, priority 2013, dated 2015)
Where two headings read alike, the source gives them in different places.

Key:
Format in all cases: biochemical
ENZ1 SEQ ID N°1 = biological target: T1, ENZ1 SEQ ID N°1 (Catenulispora acidiphila, UniProt C7QJ42); test: Substrate selectivity screening of hydroxylase (conversion by HPLC after Fmoc-Cl derivatization)
T1 construct: His6 (hexahistidine, inserted after the initial methionine) (N); made in house; host or cells: E. coli BL21(DE3) plysE
T1 sequence (C7QJ42 1-358): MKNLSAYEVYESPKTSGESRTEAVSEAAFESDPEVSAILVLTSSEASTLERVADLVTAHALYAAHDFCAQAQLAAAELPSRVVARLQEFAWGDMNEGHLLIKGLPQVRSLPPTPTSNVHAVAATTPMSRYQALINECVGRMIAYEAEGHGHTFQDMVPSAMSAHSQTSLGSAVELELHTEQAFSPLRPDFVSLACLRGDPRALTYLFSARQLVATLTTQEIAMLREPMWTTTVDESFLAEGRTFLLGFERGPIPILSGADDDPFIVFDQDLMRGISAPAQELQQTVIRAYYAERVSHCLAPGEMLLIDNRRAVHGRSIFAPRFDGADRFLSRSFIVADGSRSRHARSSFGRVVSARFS
Protocol: (§1) Enzymatic reaction medium (0.2 µmole, leq.), borate buffer 0,2M pH 7.7 (80 µL) and Fmoc-Cl solution7.5 mM in acetone (100 µL, 0.75 µmole, 3.75 eq) were hand shaked in a closed 1.50 mL eppendorf for one minute. The aqueous layer was extracted with petroleum ether (3*1 mL) to eliminate excess of Fmoc-Cl. 70 µL of the aqueous phase were withdrawn, diluted with 70 µL of acetonitrile and injected into the HPLC. For substrates with two amine functions, 100 µL of Fmoc-Cl solution 15 mM were used.
(§2) Conditions for HPLC analysis: Atlantis® T3 (3 µm 4.5*150 mm) at 35°C with the gradient 50-86% eluent B (MeCN + 0.1% TFA) and eluent A (H2O + 0.1% TFA) in 20 min at 1 mL/min.
(§3) Enzymes (0.08 mg/mL) were screened against substrates (molar ratio α-ketoglutarate/substrate 15/10) in Hepes buffer 50 mM pH 7,5, with Mohr's salt at 1mM and without sodium ascorbate, at room temperature for three hours. The potential conversions of the substrates were determined by HPLC after Fmoc-Cl derivatization as section III here above.

ENZ4 SEQ ID NO:4 = biological target: T2, ENZ4 SEQ ID NO:4 (Catenulispora acidiphila, UniProt C7Q942); test: as above
T2 construct: His6 (hexahistidine, inserted after the initial methionine) (N); made in house; host or cells: E. coli BL21(DE3) plysE
T2 sequence (C7Q942 1-343): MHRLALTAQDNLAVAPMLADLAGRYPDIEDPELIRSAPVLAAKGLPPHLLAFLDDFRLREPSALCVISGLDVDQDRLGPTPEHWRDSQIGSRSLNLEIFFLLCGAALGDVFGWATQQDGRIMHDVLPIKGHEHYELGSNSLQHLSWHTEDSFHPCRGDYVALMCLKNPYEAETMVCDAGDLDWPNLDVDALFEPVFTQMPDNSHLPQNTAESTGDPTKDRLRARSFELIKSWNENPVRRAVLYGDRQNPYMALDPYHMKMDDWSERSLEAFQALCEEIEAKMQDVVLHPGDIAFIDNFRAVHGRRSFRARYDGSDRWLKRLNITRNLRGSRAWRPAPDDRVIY
Protocol: as §1, §2, §3

ENZ2 SEQ ID NO:2 = biological target: T3, ENZ2 SEQ ID NO:2 (Flavobacterium johnsoniae, UniProt A5FF23)
T3 construct: His6 (hexahistidine, inserted after the initial methionine) (N); made in house; host or cells: E. coli BL21(DE3) plysE
T3 sequence (A5FF23 1-370): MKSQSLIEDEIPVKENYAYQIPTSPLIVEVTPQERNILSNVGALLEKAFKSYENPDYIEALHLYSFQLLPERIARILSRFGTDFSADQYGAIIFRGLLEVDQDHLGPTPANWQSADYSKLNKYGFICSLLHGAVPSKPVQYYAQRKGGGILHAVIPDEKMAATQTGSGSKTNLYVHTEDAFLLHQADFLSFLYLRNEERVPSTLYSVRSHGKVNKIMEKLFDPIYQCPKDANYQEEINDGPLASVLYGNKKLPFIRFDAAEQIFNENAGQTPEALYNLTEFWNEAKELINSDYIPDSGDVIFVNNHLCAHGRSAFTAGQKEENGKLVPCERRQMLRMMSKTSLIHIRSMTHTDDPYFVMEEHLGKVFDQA
Protocol: as §1, §2, §3

ENZ3 SEQ ID NO:3 = biological target: T4, ENZ3 SEQ ID NO:3 (Chitinophaga pinensis, UniProt C7PLM6)
T4 construct: His6 (hexahistidine, inserted after the initial methionine) (N); made in house; host or cells: E. coli BL21(DE3) plysE
T4 sequence (C7PLM6 1-382): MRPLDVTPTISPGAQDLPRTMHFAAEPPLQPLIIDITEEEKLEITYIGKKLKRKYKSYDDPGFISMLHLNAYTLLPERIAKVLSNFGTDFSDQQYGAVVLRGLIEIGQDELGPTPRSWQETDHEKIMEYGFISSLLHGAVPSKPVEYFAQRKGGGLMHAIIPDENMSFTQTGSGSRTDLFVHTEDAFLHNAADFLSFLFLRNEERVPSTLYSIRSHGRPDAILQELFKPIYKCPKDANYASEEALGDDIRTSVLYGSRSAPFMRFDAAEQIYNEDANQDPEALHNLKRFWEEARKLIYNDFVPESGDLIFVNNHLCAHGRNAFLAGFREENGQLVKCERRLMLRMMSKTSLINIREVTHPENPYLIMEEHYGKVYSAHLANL
Protocol: as §1, §2, §3

[1] = enzyme 0.08 mg/mL, molar ratio α-ketoglutarate/substrate 15/10, Hepes buffer 50 mM pH 7,5, Mohr's salt 1mM, without sodium ascorbate, room temperature, three hours

SMILES	potential conversions of the substrates, ENZ1 SEQ ID N°1 (ENZ1 SEQ ID N°1; [1])	potential conversions of the substrates, ENZ4 SEQ ID NO:4 (ENZ4 SEQ ID NO:4; [1])	potential conversions of the substrates, ENZ2 SEQ ID NO:2 (ENZ2 SEQ ID NO:2; [1])	potential conversions of the substrates, ENZ3 SEQ ID NO:3 (ENZ3 SEQ ID NO:3; [1])	potential conversions of the substrates, ENZ1 SEQ ID N°1 (ENZ1 SEQ ID N°1; pH 7)	potential conversions of the substrates, ENZ4 SEQ ID NO:4 (ENZ4 SEQ ID NO:4; pH 7)	potential conversions of the substrates, ENZ2 SEQ ID NO:2 (ENZ2 SEQ ID NO:2; pH 7)	potential conversions of the substrates, ENZ3 SEQ ID NO:3 (ENZ3 SEQ ID NO:3; pH 7)
N=C(N)NCCC[C@@H](N)C(=O)O [D-arginine]	negative	negative	negative	negative	–	–	–	–
N[C@H]1CCCCNC1=O [L-(-)-α-Amino-ε-caprolactam]	negative	negative	negative	negative	–	–	–	–
NC[C@H](O)CC[C@H](N)C(=O)O [(5R)- hydroxy-L-lysine]	positive	negative	positive	positive	–	–	–	–
COC(=O)[C@@H](N)CCCN [L-ornithine methyl ester]	negative	negative	negative	negative	–	–	–	–
NCCCCCC(=O)O [6-aminohexanoic acid]	negative	negative	negative	negative	–	–	–	–
CC(=O)N[C@@H](CCCCN)C(=O)O [Nα-acetyl-L-lysine]	negative	negative	negative	negative	–	–	–	–
NCCC[C@H](O)[C@H](N)C(=O)O [(3S)- hydroxy-L-lysine]	–	negative	positive	positive	–	–	–	–
NCCC[C@H](N)CC(=O)O [β-L-lysine]	negative	negative	negative	negative	–	–	–	–
NC(CCCC(=O)O)C(=O)O (stereo not drawn) [2-aminoadipic acid]	negative	negative	negative	negative	–	–	–	–
NC(=O)NCCC[C@H](N)C(=O)O [L-citrulline]	negative	negative	negative	negative	–	–	–	–
CC(=O)N[C@@H](CCCN)C(=O)O [Nα-acetyl-L-ornithine]	negative	negative	negative	negative	–	–	–	–
NCCCCN [Putrescine]	–	–	–	–	negative	negative	negative	negative
NCCCCCN [Cadaverine]	negative	negative	negative	negative	–	–	–	–
CC(=O)N[C@@H](CCCNC(=N)N)C(=O)O [Nα-acetyl-L-arginine]	negative	negative	negative	negative	–	–	–	–
NCCSC[C@H](N)C(=O)O [Thia-L-lysine]	negative	negative	positive	positive	–	–	–	–
NCCCC[C@@H](N)C(=O)O [D-lysine]	negative	negative	negative	negative	–	–	–	–
NCCCC[C@H](NC(=O)[C@@H](N)CCCCN)C(=O)O [L-Lysil-L-lysine]	negative	negative	negative	negative	–	–	–	–
COC(=O)[C@@H](N)CCCCN [L-lysine methyl ester]	negative	negative	negative	negative	–	–	–	–
CCCCCC(N)C(=O)O (stereo not drawn) [2-aminoheptanoic acid]	negative	negative	negative	negative	–	–	–	–
COC(=O)[C@@H](N)CCCNC(=N)N [L-arginine methyl ester]	negative	negative	negative	negative	–	–	–	–
C[N+](C)(C)CCCC[C@H](N)C(=O)O [Nε-Me3-L-lysine]	negative	negative	negative	negative	–	–	–	–
CNCCCC[C@H](N)C(=O)O [Nε-Me-L-lysine]	negative	negative	negative	negative	–	–	–	–
